Tested on: small intestine epithelial organoids
Assay: Flow cytometry of Ly6a-expressing cells, comparison by drug type
Type: cell-based
Details: drug applied together with stem cells (summary statement)
Description: In the art, quercetin is known as a therapeutic agent for inflammatory bowel disease. Accordingly, in Example 4, the revival stem cell induction ability of heterospheroids (hereinafter referred to as ‘Mel-HS’) including melatonin microspheres and 3D mesenchymal stem cells prepared in Example 1-1; and heterospheroids (hereinafter referred to as ‘Q-HS’) including quercetin microspheres and 3D mesenchymal stem cells was compared. The Q-HS was prepared by the same method as Example 1-1, but using quercetin instead of melatonin. Mel-HS was treated in small intestine epithelial organoids and then co-cultured for 48 hours. After culturing, cells expressing a revival stem cell marker Ly6a of the small intestine epithelial organoids were analyzed by flow cytometry. In addition, a Q-HS-treated group was also performed in the same manner as described above. As a control group for the experiment, 2D mesenchymal stem cells (2D) or 3D mesenchymal stem cells (3D) were treated. The flow cytometry results of the Mel-HS-treated group were shown in FIG. 4A, and the flow cytometry results of the Q-HS-treated group were shown in FIG. 4B.

Structure (SMILES)	induction of revival stem cells
O=c1c(O)c(-c2ccc(O)c(O)c2)oc2cc(O)cc(O)c12 [quercetin]	no significant effect
COc1ccc2[nH]cc(CCNC(C)=O)c2c1 [melatonin]	induced revival stem cells

Reference: US20260014204A1, “STEM CELL-DRUG CARRIER COMPRISING MELATONIN-CONTAINING DRUG CARRIER AND STEM CELL AND USES THEREOF” (priority 2024, published 2026)
